“Also recorded” adds a separate entry of the source.
Tested on: LPS-induced acute inflammation
Test: In vivo LPS-induced acute inflammation in mice (Q-PCR of lung/spleen, serum Elisa)
Set-up: species or system C57BL/6 mice
Settings: 30 mg/kg orally 2 h after 3 mg/kg LPS i.p.; samples 4 h after administration
Protocol: In this example, the effects of compounds on LPS-induced acute inflammation model in vivo were analyzed by the expression levels of inflammatory factors; the mRNA expression levels of tissue inflammation-related indicators were detected by the method of real-time quantitative PCR (Q-PCR), and the levels of inflammatory factors in serum were detected by the method of Elisa. C57BL/6 mice were purchased from SLAC, and the Elisa kits were purchased from Novusbio, with item no. 890860 for IL-6 and item no. 266117 for TNF-α. […]
Construction of inflammation model in mice: C57BL/6 mice were randomly divided into three groups: one control group, five experimental animals; one LPS modeling group, with five experimental animals; and two treatment groups, with five experimental animals. […] The blood was collected from the orbit of mice in each group at 4 h after the administration of the drug, and the spleen and lung tissues were collected after the euthanasia. mRNA was extracted from lung and spleen tissues respectively, and real-time quantitative PCR was performed after reverse transcription to assess the mRNA expression level of inflammation-related indicators, and Elisa assay was performed after serum extraction to assess the secretion level of inflammatory factors.

## COc1cc2c3cc1Oc1c(OC)c(OC)cc4c1[C@H](Cc1ccc(cc1)Oc1cc(ccc1C(N)=O)C[C@H]3N(C)CC2)N(C)CC4 [Compound 4]
  inflammatory factors and chemokines, mRNA levels and cytokine secretion levels, LPS-induced acute inflammation in mice: significantly inhibited; also recorded: significant decrease

From US20250296937A1, “CYCLIC BISBENZYL TETRAHYDROISOQUINOLINE COMPOUND, AND PREPARATION METHOD THEREFOR AND USE THEREOF” (Shanghai Institute of Materia Medica, Chinesse Academy of …, priority 2021, published 2025)
